This is an account of results in publication PMC9004777, “Double drugging of prolyl-tRNA synthetase provides a new paradigm for anti-infective drug development” (PLoS Pathogens, 2022).

In assay [1] the target is T1, Toxoplasma gondii prolyl-tRNA synthetase (TgPRS) (Toxoplasma gondii, UniProt A0A7J6JUK2).
T1 construct: gene TGRH88_057780
T1 sequence (A0A7J6JUK2 215-711): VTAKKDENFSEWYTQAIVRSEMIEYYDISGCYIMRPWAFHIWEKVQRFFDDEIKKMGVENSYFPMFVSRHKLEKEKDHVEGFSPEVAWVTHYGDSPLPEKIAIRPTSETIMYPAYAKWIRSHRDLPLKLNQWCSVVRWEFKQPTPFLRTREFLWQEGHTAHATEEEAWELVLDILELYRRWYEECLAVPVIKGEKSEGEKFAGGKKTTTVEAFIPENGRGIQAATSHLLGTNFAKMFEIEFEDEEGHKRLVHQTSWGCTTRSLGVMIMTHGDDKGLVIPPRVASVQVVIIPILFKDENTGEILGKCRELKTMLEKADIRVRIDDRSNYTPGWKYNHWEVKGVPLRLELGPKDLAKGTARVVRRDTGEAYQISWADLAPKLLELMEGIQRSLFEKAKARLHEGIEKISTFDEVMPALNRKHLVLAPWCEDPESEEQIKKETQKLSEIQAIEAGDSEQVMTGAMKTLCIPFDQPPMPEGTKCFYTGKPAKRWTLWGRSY
Description: co-crystal structure with L95 at […] Å; TSA; malachite green aminoacylation assay (IC50). The format is biochemical.

The target of a further assay is T2, HsPRS (Homo sapiens, UniProt P07814).
T2 construct: gene EPRS1
T2 sequence (P07814 whole entry): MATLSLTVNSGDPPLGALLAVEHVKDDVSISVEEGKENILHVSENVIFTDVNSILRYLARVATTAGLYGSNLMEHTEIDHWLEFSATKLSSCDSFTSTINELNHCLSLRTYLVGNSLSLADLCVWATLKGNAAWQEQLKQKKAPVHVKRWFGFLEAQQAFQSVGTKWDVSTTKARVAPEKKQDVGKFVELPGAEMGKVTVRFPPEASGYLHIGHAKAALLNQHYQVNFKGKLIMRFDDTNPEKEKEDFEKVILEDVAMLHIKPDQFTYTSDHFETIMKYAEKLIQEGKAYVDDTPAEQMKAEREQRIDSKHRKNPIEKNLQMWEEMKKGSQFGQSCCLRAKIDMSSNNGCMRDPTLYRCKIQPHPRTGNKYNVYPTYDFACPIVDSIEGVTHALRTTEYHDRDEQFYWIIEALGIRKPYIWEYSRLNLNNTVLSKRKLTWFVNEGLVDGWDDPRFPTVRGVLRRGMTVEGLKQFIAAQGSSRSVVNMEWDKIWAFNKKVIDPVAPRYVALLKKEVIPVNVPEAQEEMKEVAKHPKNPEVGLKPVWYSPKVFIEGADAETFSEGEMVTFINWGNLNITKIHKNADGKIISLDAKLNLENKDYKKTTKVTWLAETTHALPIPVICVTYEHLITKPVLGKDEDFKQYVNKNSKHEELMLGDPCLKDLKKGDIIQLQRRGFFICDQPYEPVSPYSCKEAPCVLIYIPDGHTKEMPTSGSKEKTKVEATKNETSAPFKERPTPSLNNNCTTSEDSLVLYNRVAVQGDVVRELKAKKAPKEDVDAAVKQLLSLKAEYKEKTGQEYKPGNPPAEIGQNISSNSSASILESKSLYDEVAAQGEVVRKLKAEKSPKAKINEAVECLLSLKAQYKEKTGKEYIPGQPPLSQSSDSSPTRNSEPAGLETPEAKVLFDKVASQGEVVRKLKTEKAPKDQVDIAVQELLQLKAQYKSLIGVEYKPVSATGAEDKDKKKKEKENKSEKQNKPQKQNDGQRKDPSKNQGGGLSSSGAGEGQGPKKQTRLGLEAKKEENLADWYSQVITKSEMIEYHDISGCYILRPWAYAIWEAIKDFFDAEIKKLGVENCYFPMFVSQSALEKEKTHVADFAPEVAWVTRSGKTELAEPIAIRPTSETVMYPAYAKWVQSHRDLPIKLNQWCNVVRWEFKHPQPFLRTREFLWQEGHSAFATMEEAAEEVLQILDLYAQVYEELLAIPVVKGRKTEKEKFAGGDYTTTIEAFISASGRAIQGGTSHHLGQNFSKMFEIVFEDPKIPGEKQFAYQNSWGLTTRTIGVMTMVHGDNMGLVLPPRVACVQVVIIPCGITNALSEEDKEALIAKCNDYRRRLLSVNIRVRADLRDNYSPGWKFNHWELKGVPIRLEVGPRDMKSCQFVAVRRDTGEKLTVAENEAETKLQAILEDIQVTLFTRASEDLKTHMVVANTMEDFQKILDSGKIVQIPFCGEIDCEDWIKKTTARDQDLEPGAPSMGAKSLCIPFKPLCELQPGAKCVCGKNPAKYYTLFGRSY
Description: malachite green aminoacylation assay, recombinant enzyme; TSA. The format is biochemical.

Assay [2] addresses T1, Toxoplasma gondii prolyl-tRNA synthetase (TgPRS). Description: co-crystal structures at […] Å (with L-pro, 7EVV; with HFG, 7EVU); TSA; malachite green aminoacylation assay (IC50). The format is biochemical.
For assay [3] the target is unchanged. Briefly: co-crystal structure with L95 at […] Å. The format is binding.

Each structure is given as a SMILES string. Read-outs that look alike come from different tables or passages of the source.

A word on the IC50: it is the midpoint of a concentration-inhibition curve. As for `O=C(C[C@H]1NCCC[C@@H]1O)Cn1cnc2cc(Br)c(Cl)cc2c1=O` (racemic) [HFG, halofuginone], the IC50 in assay [1] is 0.00541 µM; on HsPRS (read-out: IC50), 0.0106 µM.

With `Cc1cc(N2CC[C@@](C#N)(C3CC3)C2=O)cc(NC(=O)Cc2ccccc2)n1` [L95], the 50% inhibitory concentration (IC50) (in assay [2]; at HsPRS) was 0.0477 µM in each case.

Regarding `O=C(O)[C@@H]1CCCN1` [L-pro, L-proline], the “co-crystal structure with L95 at 1.7 Å” value in assay [3] was “forms a salt bridge between the carboxylic group of L-pro and the guanidium group of Arg470”.
